Results as given in BindingDB's records for doi:10.1016/j.bmcl.2006.06.076 (Fujisawa Pharmaceutical, 2006).

Assays:
[1] = Agonist activity at human PGI2 receptor assessed as inhibition of ADP-induced platelet aggregation
[2] = Agonist activity at rat PGI2 receptor assessed as inhibition of ADP-induced platelet aggregation

| SMILES | IC50 [1] [µM] | IC50 [2] [µM] |
| --- | --- | --- |
| O=C(O)COc1cccc(CC2=C(c3nc(-c4ccccc4)c(-c4ccccc4)o3)CCCC2)c1 [sodium 2-(3-((2-(4,5-diphenyloxazol-2-yl)cyclohex-1-enyl)methyl)phenoxy)acetate] | 0.533 |  |
| O=C(O)COc1cccc(C[C@@H]2CCC[C@H]2c2nc(-c3ccccc3)c(-c3ccccc3)o2)c1 [sodium 2-(3-(((1S,2R)-2-(4,5-diphenyloxazol-2-yl)cyclopentyl)methyl)phenoxy)acetate] | 0.039 |  |
| O=C(O)COc1cccc(CN2CCC[C@H]2c2nc(-c3ccccc3)c(-c3ccccc3)o2)c1 [sodium (S)-2-(3-((2-(4,5-diphenyloxazol-2-yl)pyrrolidin-1-yl)methyl)phenoxy)acetate] | 0.058 | > 10 |
| O=C(O)COc1cccc(CC2CCCC=C2c2nc(-c3ccccc3)c(-c3ccccc3)o2)c1 [Sodium; {3-[(R)-2-(4,5-diphenyl-oxazol-2-yl)-cyclohex-2-enylmethyl]-phenoxy}-acetate] | 0.06 | 1.2 |
| O=C(O)COc1cccc(CN2CCC[C@@H]2c2nc(-c3ccccc3)c(-c3ccccc3)o2)c1 [sodium (R)-2-(3-((2-(4,5-diphenyloxazol-2-yl)pyrrolidin-1-yl)methyl)phenoxy)acetate] | 0.048 | 0.7 |
| O=C(O)COc1cccc(C[C@@H]2CCCC[C@@H]2c2nc(-c3ccccc3)c(-c3ccccc3)o2)c1 [sodium 2-(3-(((1S,2S)-2-(4,5-diphenyloxazol-2-yl)cyclohexyl)methyl)phenoxy)acetate] | 0.115 |  |
| O=C(O)COc1cccc(Cc2ccccc2-c2nc(-c3ccccc3)c(-c3ccccc3)o2)c1 [sodium 2-(3-(2-(4,5-diphenyloxazol-2-yl)benzyl)phenoxy)acetate] | 0.93 |  |
| O=C(O)COc1cccc(C[C@@H]2CCC[C@@H]2c2nc(-c3ccccc3)c(-c3ccccc3)o2)c1 [sodium 2-(3-(((1S,2S)-2-(4,5-diphenyloxazol-2-yl)cyclopentyl)methyl)phenoxy)acetate] | 0.053 |  |
| O=C(O)COc1cccc(C[C@@H]2CCCC[C@H]2c2nc(-c3ccccc3)c(-c3ccccc3)o2)c1 [sodium 2-(3-(((1S,2R)-2-(4,5-diphenyloxazol-2-yl)cyclohexyl)methyl)phenoxy)acetate] | 0.114 |  |
